These results are taken from US9770026B2, “Substituted pyrimidine compound and uses thereof” (Shenyang Sinochem Agrochemicals R&D Co., Ltd., priority 2012, dated 2017).

One test deals with Diamond back moth. Description: insecticidal activity against diamond back moth, airbrush spray. Type of test: in vivo. The following applies: for control (test results against diamond back moth): mortality after 72 hrs. An outline of the steps: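 Airbrush leaf-disc spray test: both faces of 2 cm cabbage discs received 0.5 ml of test solution at 0.7 kg/cm^2. Solutions were made in acetone:methanol (1:1) and brought to concentration with 0.1% Tween 80 in water. Ten second-instar larvae per disc, triplicates, were held at 25° C and 60˜70% R.H., with mortality recorded at 72 hrs.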

Another test relates to armyworm. Description: bioactivity test against armyworm, airbrush spray. The conditions noted are these: for control (test results against armyworm): mortality after 72 h. Type of test: in vivo.
The subject of test [1] is Green peach aphids (Myzus Persicae Sulzer). In words: bioactivity test against green peach aphid, airbrush foliar spray. Type of test: in vivo. The following applies: for control (test results against green peach aphid): death rate after 48 hrs. An outline of the steps:
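Aphids (15-30 per cabbage leaf disc) on moist filter paper were airbrush-sprayed at 10 psi, 0.5 mL, with compound from acetone:methanol (1:1) diluted in water with 0.1% tween 80. Held at 25±1 C, 60±5% RH; survivors counted after 48 hrs to give death rates.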

The next test deals with carmine spider mite. Description: bioactivity test against carmine spider mite, airbrush spray. The class given is in vivo. An outline of the steps: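 Broadbean seedlings infested with adult mites were sprayed with compound (acetone/methanol stock diluted in 0.1% Tween 80 water) by airbrush at 0.7 kg/cm^2, 0.5 ml. Three replicates were run. Mortality was scored after 72 hrs.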

A further test relates to corn rust. Description: protectant activity in vivo against corn rust.
The subject of the next test is wheat powdery mildew. Description: protectant activity in vivo against wheat powdery mildew.
The test system of the next test is cucumber downy mildew. Description: protectant activity in vivo against cucumber downy mildew.
Setting [2] is: 100 ppm, mortality after 72 hrs.
Setting [3] is: 600 ppm, mortality after 72 hrs.

In the case of `Cc1ccc(Oc2ccc(CCNc3ncnc(C)c3Cl)cn2)cc1` [III-16], the “control (test results against diamond back moth)” value in the test on Diamond back moth (600 ppm) came out at 100%. Further, in the test on armyworm (600 ppm), the “control (test results against armyworm)” value is on record as 100%. Also, the “control (test results against green peach aphid)” value in test [1] (100 ppm) and in test [1] (600 ppm) was 100% throughout. For the same compound, the “Insecticidal activity against carmine spider mite (% )” value (“Insecticidal activity … (% )” below) in the test on carmine spider mite (100 mg/L, contrastive test) came to 100%; in the test with carmine spider mite (600 mg/L, contrastive test) it was 100%. Besides, the “control against carmine spider mite” value in the test on carmine spider mite (setting [2]) and with carmine spider mite (setting [3]) was 100% throughout. Also, the “protectant activity against corn rust in vivo” value in the test on corn rust (400 ppm) came to 100%. The “protectant activity against wheat powdery mildew in vivo” value in the test with wheat powdery mildew (400 ppm) stood at 100%. Further, the “control effect against cucumber downy mildew (%)” value stood at 100% in the test on cucumber downy mildew (6.25 mg/L, protectant activity); 100% with cucumber downy mildew (12.5 mg/L, protectant activity); 100% with cucumber downy mildew (25 mg/L, protectant activity); 100% in the test with cucumber downy mildew (50 mg/L, protectant activity); 100% with cucumber downy mildew (100 mg/L, protectant activity); 100% in the test on cucumber downy mildew (400 mg/L, protectant activity). The “protectant activity against cucumber downy mildew in vivo” value in the test on cucumber downy mildew (6.25 ppm), with cucumber downy mildew (12.5 ppm), with cucumber downy mildew (25 ppm), in the test on cucumber downy mildew (50 ppm), in the test on cucumber downy mildew (100 ppm) and in the test with cucumber downy mildew (400 ppm) was 100% in each case.
With `CCc1ncnc(NCCc2ccc(Oc3cccc(C(F)(F)F)c3)nc2)c1Cl` [III-201], the “control (test results against diamond back moth)” value in the test with Diamond back moth (600 ppm) stood at 100%. For the same compound, the “control (test results against armyworm)” value in the test on armyworm (600 ppm) was 100%. Also, the “control (test results against green peach aphid)” value in test [1] (100 ppm) and in test [1] (600 ppm) was 100% throughout. In the test on carmine spider mite (setting [3]), the “control against carmine spider mite” value is 100%. Also, the “protectant activity against corn rust in vivo” value in the test with corn rust (100 ppm) and with corn rust (400 ppm) was 100% throughout. Also, the “protectant activity against wheat powdery mildew in vivo” value with wheat powdery mildew (400 ppm) is 100%. Moreover, the “control effect against cucumber downy mildew (%)” value turned out to be 98% in the test with cucumber downy mildew (12.5 mg/L, protectant activity); 100% with cucumber downy mildew (25 mg/L, protectant activity); 100% in the test with cucumber downy mildew (50 mg/L, protectant activity); 100% in the test on cucumber downy mildew (100 mg/L, protectant activity); 100% with cucumber downy mildew (400 mg/L, protectant activity). Further, the “protectant activity against cucumber downy mildew in vivo” value in the test with cucumber downy mildew (25 ppm), with cucumber downy mildew (50 ppm), with cucumber downy mildew (100 ppm) and in the test with cucumber downy mildew (400 ppm) was 100% each time.
As to `CCc1ncnc(NCCc2ccc(Oc3ccccc3)nc2)c1Cl` [III-181], the “control (test results against diamond back moth)” value in the test with Diamond back moth (600 ppm) stood at 100%. Besides, in the test on armyworm (600 ppm), the “control (test results against armyworm)” value is on record as 100%. For the same compound, the “Insecticidal activity against peach aphid (%)” value is 100% in test [1] (10 mg/L, contrastive test); 100% in test [1] (100 mg/L, contrastive test); 100% in test [1] (600 mg/L, contrastive test). The “control (test results against green peach aphid)” value in test [1] (10 ppm), in test [1] (100 ppm) and in test [1] (600 ppm) was 100% in each case. In addition, the “Insecticidal activity … (% )” value was found to be 100% in the test with carmine spider mite (100 mg/L, contrastive test) and 100% with carmine spider mite (600 mg/L, contrastive test). The “control against carmine spider mite” value in the test on carmine spider mite (setting [2]) and in the test on carmine spider mite (setting [3]) was 100% each time. The “protectant activity against corn rust in vivo” value in the test with corn rust (400 ppm) is reported as 100%. Further, the “protectant activity against wheat powdery mildew in vivo” value in the test with wheat powdery mildew (400 ppm) turned out to be 100%. The “control effect against cucumber downy mildew (%)” value stood at 100% in the test with cucumber downy mildew (25 mg/L, protectant activity); 100% in the test with cucumber downy mildew (50 mg/L, protectant activity); 100% with cucumber downy mildew (100 mg/L, protectant activity); 100% in the test with cucumber downy mildew (400 mg/L, protectant activity). In addition, the “protectant activity against cucumber downy mildew in vivo” value in the test on cucumber downy mildew (25 ppm), in the test with cucumber downy mildew (50 ppm), in the test with cucumber downy mildew (100 ppm) and in the test on cucumber downy mildew (400 ppm) was 100% each time.
With `CCc1ncnc(NCCc2ccc(Oc3ccc(C(F)(F)F)cn3)cc2)c1Cl` [Compound I-6740], the “control (test results against diamond back moth)” value with Diamond back moth (100 ppm) and in the test on Diamond back moth (600 ppm) was 100% in each case. In addition, the “control (test results against armyworm)” value with armyworm (100 ppm) and in the test with armyworm (600 ppm) was 100% in each case. Also, the “control (test results against green peach aphid)” value in test [1] (5 ppm), in test [1] (10 ppm), in test [1] (100 ppm) and in test [1] (600 ppm) was 100% throughout. Moreover, the “Insecticidal activity … (% )” value worked out at 85% with carmine spider mite (10 mg/L, contrastive test); 100% in the test with carmine spider mite (100 mg/L, contrastive test); 100% in the test on carmine spider mite (600 mg/L, contrastive test). Further, the “control against carmine spider mite” value in the test with carmine spider mite (setting [2]) and in the test on carmine spider mite (setting [3]) was 100% in each case. Also, the pest or weed control at 10 ppm in the test on carmine spider mite (Tetranychus cinnabarinus, 72 h, 10 ppm, mortality after 72 hrs) is 80 to 99%. The “protectant activity against corn rust in vivo” value in the test on corn rust (100 ppm) and with corn rust (400 ppm) was 100% throughout. Besides, the “protectant activity against wheat powdery mildew in vivo” value in the test on wheat powdery mildew (25 ppm), in the test with wheat powdery mildew (100 ppm) and with wheat powdery mildew (400 ppm) was 100% throughout. Also, the pest or weed control at 100 ppm with cucumber downy mildew (Cucumis sativus, 168 h, read-out: protectant activity against cucumber downy mildew in vivo, 100 ppm) was 100%. Moreover, in the test on cucumber downy mildew (Cucumis sativus, 168 h, read-out: protectant activity against cucumber downy mildew in vivo, 400 ppm), the pest or weed control at 400 ppm was determined as 100%.
Take `CCc1ncnc(NC(=O)Cc2ccc(Oc3ncc(C(F)(F)F)cc3Cl)cc2)c1Cl` [CK16, reference compound]: the “Insecticidal activity against diamond back moth (%)” value in the test with Diamond back moth (600 mg/L) turned out to be 0%. For the same compound, in the test with armyworm (600 mg/L), the “Insecticidal activity against armyworm (%)” value is recorded as 0%. Further, the “Insecticidal activity against peach aphid (%)” value in test [1] (600 mg/L, contrastive test) came to 64%. Moreover, the “Insecticidal activity … (% )” value in the test with carmine spider mite (600 mg/L, contrastive test) is 0%. The “control effect against corn rust (%)” value in the test with corn rust (400 mg/L, protectant activity) is on record as 0%. Also, the “control effect against wheat powdery mildew (%)” value in the test with wheat powdery mildew (400 mg/L, protectant activity) came out at 70%. Besides, the “control effect against cucumber downy mildew (%)” value in the test on cucumber downy mildew (400 mg/L, protectant activity) worked out at 85%.
Consider `CCc1ncnc(NCCc2ccc(Oc3ccc(Cl)cc3)c(OC)c2)c1Cl` [II-1965], for which the “control (test results against diamond back moth)” value with Diamond back moth (600 ppm) turned out to be 100%. Moreover, in the test with armyworm (600 ppm), the “control (test results against armyworm)” value turned out to be 100%. The “Insecticidal activity against peach aphid (%)” value in test [1] (10 mg/L, contrastive test) was found to be 100%; in test [1] (100 mg/L, contrastive test), 100%; in test [1] (600 mg/L, contrastive test) it was 100%. Further, the “control (test results against green peach aphid)” value in test [1] (10 ppm), in test [1] (100 ppm) and in test [1] (600 ppm) was 100% throughout. The “control against carmine spider mite” value with carmine spider mite (setting [2]) and with carmine spider mite (setting [3]) was 100% each time. The “protectant activity against corn rust in vivo” value in the test on corn rust (400 ppm) is recorded as 100%. For the same compound, the “protectant activity against wheat powdery mildew in vivo” value with wheat powdery mildew (400 ppm) worked out at 100%. Also, the “protectant activity against cucumber downy mildew in vivo” value with cucumber downy mildew (400 ppm) turned out to be 100%.
In the case of `Cc1ncnc(NC(C)c2ccc(Oc3ncc(C(F)(F)F)cc3Cl)cc2)c1Cl` (stereo not drawn) [CK27, reference compound], the pest or weed control at 600 µg/mL was determined as 0% in the test on Diamond back moth (72 h, 600 mg/L); 29% with armyworm (72 h, 600 mg/L, read-out: Insecticidal activity against armyworm (%)); 0% in test [1] (Myzus persicae, foliar, 48 h, 600 mg/L, contrastive test, read-out: Insecticidal activity against peach aphid (%)); 100% in the test with carmine spider mite (Tetranychus cinnabarinus, 72 h, 600 mg/L, contrastive test, read-out: Insecticidal activity against carmine spider mite (% )). In addition, the pest or weed control at 10 µg/mL in the test on carmine spider mite (Tetranychus cinnabarinus, 72 h, 10 mg/L, contrastive test, read-out: Insecticidal activity against carmine spider mite (% )) worked out at 18%. For the same compound, the pest or weed control at 100 µg/mL in the test with carmine spider mite (Tetranychus cinnabarinus, 72 h, 100 mg/L, contrastive test, read-out: Insecticidal activity against carmine spider mite (% )) was 100%; with corn rust (Zea mays, 168 h, read-out: control effect against corn rust (%), 100 mg/L, protectant activity), 100%; with cucumber downy mildew (Cucumis sativus, 168 h, read-out: control effect against cucumber downy mildew (%), 100 mg/L, protectant activity), 0%. The pest or weed control at 6.25 µg/mL with corn rust (Zea mays, 168 h, read-out: control effect against corn rust (%), 6.25 mg/L, protectant activity) stood at 30%. For the same compound, the pest or weed control at 25 µg/mL worked out at 90% in the test on corn rust (Zea mays, 168 h, read-out: control effect against corn rust (%), 25 mg/L, protectant activity) and 0% with cucumber downy mildew (Cucumis sativus, 168 h, read-out: control effect against cucumber downy mildew (%), 25 mg/L, protectant activity). The pest or weed control at 400 µg/mL with corn rust (Zea mays, 168 h, read-out: control effect against corn rust (%), 400 mg/L, protectant activity) is 100%; in the test with wheat powdery mildew (Triticum aestivum, 168 h, read-out: control effect against wheat powdery mildew (%), 400 mg/L, protectant activity), 80%; with cucumber downy mildew (Cucumis sativus, 168 h, read-out: control effect against cucumber downy mildew (%), 400 mg/L, protectant activity), 100%. Also, the pest or weed control at 50 µg/mL with cucumber downy mildew (Cucumis sativus, 168 h, read-out: control effect against cucumber downy mildew (%), 50 mg/L, protectant activity) turned out to be 0%.
